Experimental data: US7183252B2, “Indole peptidomimetics as thrombin receptor antagonists” (Ortho-McNeil Pharmaceutical, Inc., priority 1999, dated 2007)
pIC50: −log10 of the molar value. Where two headings read alike, the source gives them in different places.

Legend:
gel-filtered platelets = assay: In vitro inhibition of thrombin-induced gel-filtered platelet aggregation; assay type: cell-based; conditions: human gel-filtered platelets, agonist thrombin 50 μL of 1 unit/mL, read-out: Thrmb IC50 (Thrombin-induced aggregation of gel-filtered platelets)
Description: In Vitro Inhibition of Thrombin-Induced Gel-Filtered Platelet Aggregation Assay
The percentage of platelet aggregation is calculated as an increase in light transmission of compound-treated platelet concentrate vs. control-treated platelet concentrate. Human blood is obtained from drug free, normal donors in tubes containing 0.13M sodium citrate. Platelet rich plasma (PRP) is collected by centrifugation of whole blood at 200×g for 10 min at 25° C. The PRP (5 mL) is gel filtered through Sepharose 2B (bed volume 50 mL), and the platelet count is adjusted to 2×10^7 platelets per sample. The following constituents are added to a siliconized cuvette: concentrated platelet filtrate and Tyrode's buffer (0.14M NaCl, 0.0027M KCl, 0.012M NaHCO3, 0.76 mM Na2HPO4, 0.0055M glucose, 2 mg/mL BSA and 5.0 mM HEPES @ pH 7.4) in an amount equal to 350 μL 50 μL of 20 mM calcium and 50 μL of the test compound. Aggregation is monitored in a BIODATA aggregometer for the 3 min following the addition of agonist (thrombin 50 μL of 1 unit/mL).
(§1) Table 7 contains IC50 values (μM) of the compounds in a thrombin receptor binding assay, and IC50 values (μM) against platelet aggregation stimulated by thrombin.

[1] = target: T1, thrombin receptor (PAR-1) (Homo sapiens, UniProt P25116); assay: In vitro thrombin receptor binding assay (CHRF membranes); conditions: tritiated 721-40 radioligand, read-out: Bndg IC50 (Thrombin receptor binding)
T1 construct: CHRF membranes (Jones, Biochim. Biophys. Acta 1992, 1136, 272) are thawed from −70° C; endogenous in cells; host or cells: CHRF cell membranes
T1 sequence (P25116 22-425): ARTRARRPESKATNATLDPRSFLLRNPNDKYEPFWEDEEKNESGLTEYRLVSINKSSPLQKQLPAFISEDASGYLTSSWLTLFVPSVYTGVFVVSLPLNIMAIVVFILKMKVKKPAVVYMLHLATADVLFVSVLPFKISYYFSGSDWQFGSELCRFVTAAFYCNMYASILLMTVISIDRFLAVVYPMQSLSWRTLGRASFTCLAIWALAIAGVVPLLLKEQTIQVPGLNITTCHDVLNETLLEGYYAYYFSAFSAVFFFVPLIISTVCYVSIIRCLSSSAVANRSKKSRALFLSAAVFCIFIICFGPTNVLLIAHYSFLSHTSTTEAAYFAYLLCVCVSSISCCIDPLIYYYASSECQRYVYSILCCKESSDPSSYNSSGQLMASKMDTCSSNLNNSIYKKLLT
Description: In Vitro Thrombin Receptor Binding Assay
CHRF membranes (Jones, Biochim. Biophys. Acta 1992, 1136, 272) are thawed from −70° C., centrifuged at maximum speed for 5 min, washed twice with binding buffer (50 mM HEPES containing 5 mM MgCl2 and 0.1% BSA), and re-suspended in binding buffer (25 μg/[…]). 100 μL of membranes are added to the 24-Wallac plates and delivered to the Tomtech apparatus. In a typical experiment, 6 μL of samples (from a 125 μg/mL intermediary plate, 20% DMSO) and 44 μL buffer are delivered to the plates (final conc. of compounds is 3.7 μg/mL, 0.6% DMSO). Similarly, 6 μL 20% DMSO and 44 μL buffer are delivered to both column 1 (NSB) and column 12 (TB). 10 μL Ser-pFPhe-Har-Leu-Har-Lys-Tyr-NH2 (721–40; 500 μM in deionized water) is added to column 1. 50 μL tritiated 721–40 (specific activity 46 Ci/mmol) is added to all the wells. The plates are mixed well for 20 seconds, incubated for 30 min,and then harvested with 10 mM HEPES/138 mM NaCl using the Skatron harvester. The filters (GF/C Brandel FPXLR 296) are presoaked 3 h in 0.5% polyethylenimine in HEPES/0.1M N-acetylglucosamine) are set in saran wrap and dried for 3 min in the microwave, and placed in sample bags (Wallac 1450-432). 4.5 mL scintillation fluid (Wallac, Betaplate Scint 1205-440) is added. The bags are sealed, placed in filter cassettes (Wallac 1450-104), and analyzed on the microbeta counter.
as §1

Row | SMILES | pIC50 (gel-filtered platelets; Platelet) | pIC50 [1] | pIC50 (gel-filtered platelets)
1 | NCCC[C@H](NC(=O)[C@H](Cc1ccc(F)c(F)c1)NC(=O)Nc1ccc2c(CN3CCCC3)cn(Cc3c(Cl)cccc3Cl)c2c1)C(=O)NC1CCCC1 [Compound 125] | 6.37 | 6.18 | 
2 | N=C(N)NCCC[C@H](NC(=O)[C@H](Cc1cscn1)NC(=O)Nc1ccc2c(CN3CCCC3)cn(Cc3c(Cl)cccc3Cl)c2c1)C(=O)NCc1ccccc1 [Compound 53] | 6.00 | 5.06 | 
3 | N=C(N)NCCC[C@H](NC(=O)[C@H](Cc1ccc(F)c(F)c1)NC(=O)Nc1ccc2c(CN3CCCC3)cn(Cc3c(Cl)cccc3Cl)c2c1)C(=O)NCc1ccncc1 [Compound 62] | 5.90 | 7.52 | 
4 | N=C(N)NCCC[C@H](NC(=O)[C@@H]1Cc2ccccc2CN1C(=O)Nc1ccc2c(CN3CCCC3)cn(Cc3ccc(F)cc3)c2c1)C(=O)NCc1ccccc1 [Compound 30] | < 5.00 | 5.05 | 
5 | CCN(CC)Cc1cn(Cc2ccc(F)cc2)c2cc(NC(=O)N[C@@H](Cc3ccc(OC)cc3)C(=O)N[C@@H](CCCNC(=N)N)C(=O)NCCCc3ccccc3)ccc12 [Compound 5] | 5.54 | 5.74 | 
6 | NCC[C@H](NC(=O)[C@H](Cc1ccc(F)c(F)c1)NC(=O)Nc1ccc2c(CN3CCCC3)cn(Cc3c(Cl)cccc3Cl)c2c1)C(=O)NCCN1CCCC1 [Compound 141] | 6.70 | 7.15 | 
7 | COc1ccc(C[C@H](NC(=O)Nc2ccc3c(CNC4CCCC4)cn(Cc4ccc(F)cc4)c3c2)C(=O)N[C@@H](CCCNC(=N)N)C(=O)NCc2ccccc2)cc1 [Compound 3] | 4.67 | 4.97 | 
8 | COc1ccc(C[C@H](NC(=O)Nc2ccc3c(CN4CCCC4)cn(Cc4ccc(Cl)cc4)c3c2)C(=O)N[C@@H](CCCNC(=N)N)C(=O)NCc2ccccc2)cc1 [Compound 19] | 5.49 | 5.80 | 
9 | N=C(N)NCCC[C@H](NC(=O)[C@H](Cc1ccc(F)cc1)NC(=O)Nc1ccc2c(CN3CCCC3)cn(Cc3ccc(F)cc3)c2c1)C(=O)NCc1ccccc1 [Compound 26] | 6.26 | 5.37 | 
10 | NCCC[C@H](NC(=O)[C@H](Cc1cccc(F)c1)NC(=O)Nc1ccc2c(CN3CCCC3)cn(Cc3c(Cl)cccc3Cl)c2c1)C(=O)NC1Cc2ccccc2C1 [Compound 96] | 6.00 | 5.55 | 
11 | NCC[C@H](NC(=O)[C@H](Cc1ccc(F)c(F)c1)NC(=O)Nc1ccc2c(CN3CCCC3)cn(Cc3c(Cl)cccc3Cl)c2c1)C(=O)NCc1ccc([N+](=O)[O-])cc1 [Compound 158] |  | 5.74 | 6.13
12 | COc1ccc(C[C@H](NC(=O)Nc2ccc3c(CN4CCCC4)cn(Cc4ccc(F)cc4)c3c2)C(=O)N[C@@H](CCCNC(=N)N)C(=O)NCCCc2ccccc2)cc1 [Compound 4] | 4.83 | 5.89 | 
13 | N=C(N)NCCC[C@H](NC(=O)[C@H](Cc1ccc(F)c(F)c1)NC(=O)Nc1ccc2c(CN3CCCC3)cn(Cc3c(Cl)cccc3Cl)c2c1)C(=O)NCc1ccc(F)cc1 [Compound 59] | 6.06 | 6.85 | 
14 | NCC[C@H](NC(=O)[C@H](Cc1ccc(F)c(F)c1)NC(=O)Nc1ccc2c(CN3CCSC3)cn(Cc3c(Cl)cccc3Cl)c2c1)C(=O)NCc1ccccc1 [Compound 154] | 4.89 | 6.12 | 
15 | O=C(Nc1ccc2c(CN3CCCC3)cn(Cc3c(Cl)cccc3Cl)c2c1)N[C@@H](Cc1ccc(F)c(F)c1)C(=O)N[C@@H](CCCCNC(=O)c1cccnc1)C(=O)NCc1ccccc1 [Compound 68] | 5.33 | 5.19 | 
16 | NCC[C@H](NC(=O)[C@H](Cc1ccc(F)c(F)c1)NC(=O)Nc1ccc2c(c1)c(CN1CCCC1)cn2Cc1ccc(F)cc1)C(=O)NCc1ccccc1 [Compound 164] | 4.87 | 4.93 | 

Row | SMILES | pIC50 (gel-filtered platelets; Platelet) | pIC50 [1] | pIC50 (gel-filtered platelets)
17 | CN(Cc1cn(Cc2c(Cl)cccc2Cl)c2cc(NC(=O)N[C@@H](Cc3ccc(Cl)cc3)C(=O)N[C@@H](CCCN)C(=O)NCCc3ccccc3Cl)ccc12)C1CCCC1 [Compound 119] | 5.49 | 5.21 | 
18 | NCCNC(=O)[C@H](Cc1cccc(F)c1)NC(=O)[C@H](Cc1ccc(F)c(F)c1)NC(=O)Nc1ccc2c(CN3CCCC3)cn(Cc3c(Cl)cccc3Cl)c2c1 [Compound 138] | 6.48 | 5.70 | 
19 | Cn1cnc(CCNC(=O)[C@H](CCCN)NC(=O)[C@H](Cc2ccc(F)c(F)c2)NC(=O)Nc2ccc3c(CN4CCCC4)cn(Cc4c(Cl)cccc4Cl)c3c2)c1 [Compound 124] |  | 5.92 | 6.36
20 | COc1ccc(C[C@H](NC(=O)Nc2ccc3c(CN4CCCC4)cn(Cc4ccc(OC(F)(F)F)cc4)c3c2)C(=O)N[C@@H](CCCNC(=N)N)C(=O)NCC2CCCCC2)cc1 [Compound 11] |  | 5.60 | 4.70
21 | C=CCOc1ccc(C[C@H](NC(=O)Nc2ccc3c(CN4CCCC4)cn(Cc4cccc(C)c4)c3c2)C(=O)N[C@@H](CCCNC(=N)N)C(=O)NCc2ccccc2)cc1 [Compound 34] | 4.79 | 5.01 | 
22 | Cc1ccccc1Cn1cc(CN2CCCC2)c2cccc(NC(=O)N[C@@H](Cc3ccc(F)c(F)c3)C(=O)N[C@@H](CCN)C(=O)NCc3ccccc3)c21 [Compound 168] | 5.08 | 4.19 | 
23 | N=C(N)NCCC[C@H](NC(=O)[C@H](Cc1cccs1)NC(=O)Nc1ccc2c(CN3CCCC3)cn(Cc3ccc(F)cc3)c2c1)C(=O)NCc1ccccc1 [Compound 28] | 4.86 | 5.39 | 
24 | NCCCNC(=O)[C@H](Cc1ccncc1)NC(=O)[C@H](Cc1ccc(Cl)cc1)NC(=O)Nc1ccc2c(CN3CCCC3)cn(Cc3c(Cl)cccc3Cl)c2c1 [Compound 145] | 6.60 | 6.30 | 
25 | N=C(N)NCCC[C@H](NC(=O)[C@H](Cc1ccc(F)c(F)c1)NC(=O)Nc1ccc2c(CN3CCCC3)cn(Cc3c(Cl)cccc3Cl)c2c1)C(=O)NCCCCCN [Compound 81] | 6.39 | 7.15 | 
26 | Cc1ccccc1Cn1cc(CN2CCC(N(C)C)C2)c2ccc(NC(=O)N[C@H](Cc3ccc(F)c(F)c3)C(=O)N[C@@H](CCCN=C(N)N)C(=O)NCc3ccccc3)cc21 (stereo partly shown) [Compound 90] | < 5.00 | 4.80 | 
27 | NCCCC[C@H](NC(=O)[C@H](Cc1ccc(F)c(F)c1)NC(=O)Nc1ccc2c(CN3CCCC3)cn(Cc3c(Cl)cccc3Cl)c2c1)C(=O)NCc1ccccc1 [Compound 70] | 6.51 | 6.49 | 
28 | COc1ccc(C[C@H](NC(=O)Nc2ccc3c(CNC4CC4)cn(Cc4ccc(F)cc4)c3c2)C(=O)N[C@@H](CCCNC(=N)N)C(=O)NCc2ccccc2)cc1 [Compound 45] | < 5.00 | 4.86 | 
29 | COc1ccc(C[C@H](NC(=O)Nc2ccc3c(CN4CCCC4)cn(Cc4ccc5ccccc5c4)c3c2)C(=O)N[C@@H](CCCNC(=N)N)C(=O)NCc2ccccc2)cc1 [Compound 15] | 4.93 | 5.37 | 
30 | NCCNC(=O)[C@H](Cc1cscn1)NC(=O)[C@H](Cc1ccc(Cl)cc1)NC(=O)Nc1ccc2c(CN3CCCC3)cn(Cc3c(Cl)cccc3Cl)c2c1 [Compound 137] | 6.03 | 6.09 | 
31 | CCCCN(CCCC)Cc1cn(Cc2ccccc2C)c2cc(NC(=O)N[C@@H](Cc3cc(F)cc(F)c3)C(=O)N[C@@H](CCCNC(=N)N)C(=O)NCc3ccccc3)ccc12 [Compound 58] | < 5.00 | 5.82 | 
32 | COc1ccc(C[C@H](NC(=O)Nc2ccc3c(CN4CCCC4)cn(Cc4ccc(S(C)(=O)=O)cc4)c3c2)C(=O)N[C@@H](CCCNC(=N)N)C(=O)NCc2ccccc2)cc1 [Compound 12] | 4.36 | 4.80 | 
